Source: US11701355B2, “Levosimendan for treating pulmonary hypertension with heart failure with preserved ejection fraction (PH-HFpEF)” (Tenax Therapeutics, Inc., priority 2019, dated 2023)

Key:
[1] = Pharmacokinetic study, subcutaneous vs IV administration, plasma levosimendan and OR-1896 by HPLC/MS/MS; details: male, Sprague Dawley, rat, in vivo
Procedure: A pharmacokinetic study was conducted in male Sprague Dawley rats to compare subcutaneous administration of a composition of the present invention with IV administration of a formulation of levosimendan. The study evaluated levosimendan blood levels and pain at the injection site.
This study involved comparing the results of administering two subcutaneous compositions according to embodiments of the present invention to a previous pharmacokinetic study in which male rats were dosed by tail vein levosimendan as an IV bolus injection at 0.5 mg/kg using a 0.25 mg/ml solution. Thus, this study comprised three study arms: • a. IV administration of a composition comprising levosimendan (0.25 mg/ml) and phosphate buffer (10 mmolar), prepared in sterile water for injection and adjusted to a pH of 7.0 to 7.9 using 1 N NaOH or 10 N NaOH; this composition was administered at a dose of 0.5 mg/kg. • b. Subcutaneous administration of a composition comprising levosimendan (1.0 mg/ml), Captisol® (100 mg/ml), and phosphate buffer (10 mmolar), prepared in sterile water for injection and adjusted to a pH of 7.0 to 7.9 using 1 N NaOH or 10 N NaOH; this composition was administered at a dose of 0.5 mg/kg. • c. […]
Plasma samples were analyzed for levosimendan and OR-1896 (the primary metabolite) by HPLC/MS/MS. […]

HFrEF patients = details: compared with placebo; cited from earlier work

C[C@@H]1CC(=O)NN=C1c1ccc(NN=C(C#N)C#N)cc1 [levosimendan, Levosimendan]
start of the β phase (loss from blood mainly due to metabolism) [1]: about 2 hours
cardiac output, stroke volume, ejection fraction, and heart rate (HFrEF patients): increased
systolic blood pressure, diastolic blood pressure, pulmonary capillary wedge pressure, right atrial pressure, and peripheral vascular resistance (HFrEF patients): reduced
